Assays:
[1] = test system: BT245 H3K27M paediatric glioma cells; assay: Combination assay PARP inhibitor with ionizing radiation (colony formation); format: cell-based; settings: 0.9 Gy, multiple doses of the inhibitor
Description: DMSO served as a vehicle control. […] Next, cells were fixed and stained using the Sulforhodamin B acid form (SRB) [Sigma, 341738-5g] reconstituted in 1% Acetic Acid as the stain is added straight after fixation without any washing step which limits cell detachment. Plates with stained colonies were scanned with the GelCount colony counter (Oxford OPTRONIX) at 600 dpi resolution. Colony formation was scored by quantifying the total optical density measured with ImageJ software, using a 24-well plate Region of Interest (ROI) mask (CFU, colony formation units). Data analysis was performed by normalisation on the vehicle treated of the respective plate set as =100. […] In the represented plots error bars are mean±SD.

[2] = test system: U87 IDH1wt ATRXwt; assay: Monotherapy treatment, U87 IDH1wt ATRXwt; format: cell-based; settings: read-out: Compound 20 IC50
Description: (§1) To evaluate the activity and potency of the PARP inhibitors described herein in combination with the standard of care chemotherapy Temozolamide (TMZ), ionizing radiation (IR) and the emerging chemotherapy VAL-083, U87, SJG2 and BT245 glioblastoma cells were assayed. Parental U87 cell lines were obtained from the AstraZeneca Global Cell Bank in Alderley Park, UK and the isocistrate dehydrogenase 1 mutant cell line (IDH1 mt R1 32H) was licensed in from ATCC. The SJ-G2 (ATRX mutant) and BT245 (H3K27M mutant) cell lines were obtained from The Research Institute of the McGill University Health Centre, Montreal, QC H4A 3J1, Canada. IDH1R132 mutation was induced in SJG2 cell line to generated isogenic pair (SJG2 IDH1mt and SJG2 IDH1 wt). […]
(§2) For the nuclear count end point assay, cells were fixed for ˜15 minutes (min) by the addition of 50 μl per well of Formaldehyde (Sigma-Aldrich F8775). […] The images were acquired using CellInsight CX5 (Thermo Fisher) and analysed by measuring the total number of hoechst stained nuclei. The number of nuclei (% confluence) of the drug treated wells were normalised to the DMSO control and the growth inhibition was calculated using the combenefit software (Di Veroli et al., 2016).

[3] = test system: PARylation in U87 isogenic pair; assay: PARylation inhibition in U87 isogenic pair; format: cell-based; settings: data not shown
[4] = test system: U87MG xenograft; format: in vivo, female Nude mice; settings: Compound 20 3 mg/kg QD in combination with TMZ 6.25 mg/kg QD on days 1-5 and 29-33, PO
Description: U87MG cells (2.5 million in serum-free MEM medium) were implanted subcutaneously (SC) into the dorsal flank of female Nude mice (weight greater than 18 g). Tumours were measured (length x width) two times weekly by bilateral Vernier calliper measurements and tumour volume was calculated using elliptical formula (π/6×width×width×length). Animal bodyweight and tumour condition were monitored throughout the study. Mice were randomised into treatment groups when mean tumour volume reached approximately 0.2 cm^3.
Animals were treated orally (PO) from the day after the randomisation. Control animals were treated with vehicle (water/methane sulfonic acid (MSA) pH3-3.2) once daily for 10 days (QD×10). PARP inhibitor in water/MSA pH3-3.2 was dosed in the monotherapy and combination groups at 3 mg/kg QD×10 or QD×33, respectively. Temozolomide (TMZ) in OraPlus Perrigo was dosed in the monotherapy group at 25 mg/kg QD on days 1-5 and 29-33, and in monotherapy and combination group at 6.25 mg/kg QD on days 1-5 and 29-33.
Tumour growth inhibition from start of treatment was assessed by comparison of the mean change in tumour volume (TV) of the control and treated groups and represented as percent tumour growth inhibition (TGI, when tumour volume (TV) >starting TV) or tumour regression (reg, when TV<starting TV). Statistical significance was evaluated using a one-tailed t test. Statistical significance is indicated as follows: *p:0.05, **p:0.01, ***p:0.001.

[5] = test system: SJ-G2 IDH1 wt and IDH1mt isogenic pairs; assay: Combination assay PARP inhibitor with TMZ, SJ-G2 isogenic pairs; format: cell-based
Description: as §1, §2

[6] = test system: U87 IDH1 wt; assay: Combination assay PARP inhibitor with TMZ, U87 IDH1 wt; format: cell-based
Description: as §1, §2

[7] = test system: U87 IDH1 mt R132H; assay: Combination assay PARP inhibitor with TMZ, U87 IDH1mt; format: cell-based
Description: as §1, §2

[8] = test system: SJ-G2 IDH1mt ATRXmt; assay: cells; settings: SJ-G2, read-out: Compound 20 IC50
Description: as §1, §2

[9] = test system: SJ-G2 IDH1 wt and IDH1mt isogenic pairs; assay: Combination assay PARP inhibitor with VAL-083, SJ-G2 isogenic pairs; format: cell-based
Description: as §1, §2

Structure (SMILES): CNC(=O)c1ccc(N2CCN(Cc3ccc4nc(C)c(=O)[nH]c4c3F)CC2)c(F)n1 [Example 20, 6-fluoro-5-[4-[(5-fluoro-2-methyl-3-oxo-4H-quinoxalin-6-yl)methyl]piperazin-1-yl]-N-methyl-pyridine-2-carboxamide]
- combination effect with ionizing radiation [1]: enhanced combination benefit
- IC50 [2]: > 100000 nM
- IC95 for PARylation inhibition [3]: 8 nM
- tumour regression [4]: 95%
- tumours regressed [4]: 8/8
- lowest PARP inhibitor concentration significantly enhancing the TMZ effect [5]: 10 nM
- concentration at which Compound 20 synergises with TMZ [6]: 10 µM
- concentration at which Compound 20 synergises with TMZ ([7]; U87 IDH1mt): 1 µM
- lower concentration for synergy with TMZ in IDH1mt compared to wild type ([7]; U87 IDH1mt vs IDH1 wt): 10 fold
- IC50 [8]: 1750 nM
- activity in the absence of VAL-083 ([9]; 1 μM Compound 20, ATRX mutant cell lines): has activity
- combination effect with VAL-083 ([9]; SJ-G2 IDH1 wt and IDH1mt, ATRX mutant): enhanced combination benefit
